Reference: ChEMBL document CHEMBL5058643, “Data for DCP probe BI-2081” (2022)
Calls of active or inactive are those of the source.

What was measured:
[1] = biological target: B2 bradykinin receptor (Homo sapiens) (UniProt P30411); assay: B2/H Eurofins SafetyScreen44 (BI); settings: filed as antagonist, Compound concentration 10.0 uM
[2] = biological target: Glucocorticoid receptor (Homo sapiens) (UniProt P04150); assay: GLUCOCORTICO Eurofins SafetyScreen44 (BI); settings: Compound concentration 10.0 uM
[3] = biological target: Endothelin-1 receptor (Homo sapiens) (UniProt P25101); assay: ETA/HU Eurofins SafetyScreen44 (BI); settings: Compound concentration 10.0 uM
[4] = biological target: Epidermal growth factor receptor (Homo sapiens) (UniProt P00533); assay: EGF/HU Eurofins SafetyScreen44 (BI); settings: Compound concentration 10.0 uM
[5] = biological target: Prostaglandin E2 receptor EP4 subtype (Homo sapiens) (UniProt P35408); assay: PEP4_HU Eurofins SafetyScreen44 (BI)
[6] = biological target: 3',5'-cyclic-AMP phosphodiesterase 4A (Rattus norvegicus) (UniProt P54748); assay: ROLIPRAM/R Eurofins SafetyScreen44 (BI); settings: Compound concentration 10.0 uM
[7] = biological target: Voltage-dependent N-type calcium channel subunit alpha-1B (Rattus norvegicus) (UniProt Q02294); assay: CA+/N/RA Eurofins SafetyScreen44 (BI); settings: Compound concentration 10.0 uM
[8] = biological target: Free fatty acid receptor 1 (Homo sapiens, UniProt O14842); assay: IPOne assay
[9] = biological target: T1, Alpha-2C adrenergic receptor (Homo sapiens) (UniProt P18825); assay: ALPHA2C/H Eurofins SafetyScreen44 (BI)
T1 sequence (whole entry): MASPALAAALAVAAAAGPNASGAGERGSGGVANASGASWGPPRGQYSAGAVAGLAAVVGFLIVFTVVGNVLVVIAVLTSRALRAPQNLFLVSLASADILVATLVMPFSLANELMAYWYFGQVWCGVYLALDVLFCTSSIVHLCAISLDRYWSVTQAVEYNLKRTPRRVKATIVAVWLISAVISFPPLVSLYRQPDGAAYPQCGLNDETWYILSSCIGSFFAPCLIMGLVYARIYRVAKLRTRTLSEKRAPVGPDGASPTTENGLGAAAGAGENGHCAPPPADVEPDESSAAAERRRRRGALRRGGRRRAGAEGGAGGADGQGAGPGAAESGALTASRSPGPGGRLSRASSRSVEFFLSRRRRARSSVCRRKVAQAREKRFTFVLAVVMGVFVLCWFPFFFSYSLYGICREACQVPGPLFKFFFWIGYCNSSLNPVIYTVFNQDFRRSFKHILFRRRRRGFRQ

[10] = biological target: Adenosine receptor A1 (Homo sapiens) (UniProt P30542); assay: A1/HU Eurofins SafetyScreen44 (BI); settings: Compound concentration 10.0 uM
[11] = biological target: T2, Alpha-1A adrenergic receptor (Homo sapiens) (UniProt P35348); settings: Compound concentration 10.0 uM
T2 sequence (whole entry): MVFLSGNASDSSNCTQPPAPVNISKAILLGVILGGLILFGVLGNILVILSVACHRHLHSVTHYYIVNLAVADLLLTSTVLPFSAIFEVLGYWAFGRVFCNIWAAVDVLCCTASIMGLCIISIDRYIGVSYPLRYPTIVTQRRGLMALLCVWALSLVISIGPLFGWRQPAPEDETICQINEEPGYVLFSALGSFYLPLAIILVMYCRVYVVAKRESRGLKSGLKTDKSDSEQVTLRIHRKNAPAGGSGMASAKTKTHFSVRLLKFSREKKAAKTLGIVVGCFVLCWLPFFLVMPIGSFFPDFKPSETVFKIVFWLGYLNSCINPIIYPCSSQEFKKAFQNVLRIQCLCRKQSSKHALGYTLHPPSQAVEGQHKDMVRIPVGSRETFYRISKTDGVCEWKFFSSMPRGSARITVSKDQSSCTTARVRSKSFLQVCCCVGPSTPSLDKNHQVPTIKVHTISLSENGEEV

[12] = biological target: Sodium-dependent noradrenaline transporter (Homo sapiens) (UniProt P23975); assay: NETRANS/H Eurofins SafetyScreen44 (BI); settings: Compound concentration 10.0 uM
[13] = biological target: T3, Alpha-1D adrenergic receptor (Homo sapiens) (UniProt P25100); assay: ALPHA1D/H Eurofins SafetyScreen44 (BI); settings: Compound concentration 10.0 uM
T3 sequence (whole entry): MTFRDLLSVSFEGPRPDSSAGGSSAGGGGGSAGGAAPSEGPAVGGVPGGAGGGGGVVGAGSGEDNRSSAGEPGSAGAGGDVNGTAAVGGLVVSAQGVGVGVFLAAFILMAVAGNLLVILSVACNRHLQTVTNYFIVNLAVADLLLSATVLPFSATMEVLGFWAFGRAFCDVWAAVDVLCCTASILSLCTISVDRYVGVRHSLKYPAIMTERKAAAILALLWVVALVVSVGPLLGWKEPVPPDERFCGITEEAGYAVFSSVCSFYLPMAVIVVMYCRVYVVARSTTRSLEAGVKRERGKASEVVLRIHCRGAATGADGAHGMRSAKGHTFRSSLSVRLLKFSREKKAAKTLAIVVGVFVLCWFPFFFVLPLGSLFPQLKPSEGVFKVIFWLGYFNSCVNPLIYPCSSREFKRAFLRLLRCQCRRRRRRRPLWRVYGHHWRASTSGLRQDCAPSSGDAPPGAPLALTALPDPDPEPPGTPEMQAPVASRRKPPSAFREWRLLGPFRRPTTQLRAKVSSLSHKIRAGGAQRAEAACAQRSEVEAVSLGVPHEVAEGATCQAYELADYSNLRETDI

[14] = biological target: MAO-A (amine oxidase [flavin-containing] A) (Rattus norvegicus, UniProt P21396); assay: MAO-A_ANTAG Eurofins SafetyScreen44 (BI); set-up: mode of action antagonist; scale not given: the % may be the effect or the level left; settings: compound concentration 10 uM, read-out: % Ctrl
[15] = biological target: T4, Alpha-2A adrenergic receptor (Homo sapiens) (UniProt P08913); assay: ALPHA2A/HU Eurofins SafetyScreen44 (BI); settings: Compound concentration 10.0 uM
T4 sequence (whole entry): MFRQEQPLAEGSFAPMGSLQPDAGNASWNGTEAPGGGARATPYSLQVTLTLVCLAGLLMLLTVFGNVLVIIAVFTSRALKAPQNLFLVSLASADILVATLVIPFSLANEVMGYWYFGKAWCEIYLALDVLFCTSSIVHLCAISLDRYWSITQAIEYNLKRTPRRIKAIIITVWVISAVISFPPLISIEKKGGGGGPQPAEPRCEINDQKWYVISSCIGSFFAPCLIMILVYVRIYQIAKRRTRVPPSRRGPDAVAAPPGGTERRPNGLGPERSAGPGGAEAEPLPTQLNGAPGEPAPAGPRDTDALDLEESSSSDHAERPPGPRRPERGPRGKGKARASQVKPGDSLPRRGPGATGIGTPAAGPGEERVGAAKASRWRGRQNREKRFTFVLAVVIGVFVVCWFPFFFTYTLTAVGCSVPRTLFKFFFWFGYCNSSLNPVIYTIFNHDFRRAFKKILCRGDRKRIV

[16] = biological target: Beta-2 adrenergic receptor (Homo sapiens) (UniProt P07550); settings: Compound concentration 10.0 uM
Beta-2 adrenergic receptor (Homo sapiens), sequence (P07550 whole entry, looked up): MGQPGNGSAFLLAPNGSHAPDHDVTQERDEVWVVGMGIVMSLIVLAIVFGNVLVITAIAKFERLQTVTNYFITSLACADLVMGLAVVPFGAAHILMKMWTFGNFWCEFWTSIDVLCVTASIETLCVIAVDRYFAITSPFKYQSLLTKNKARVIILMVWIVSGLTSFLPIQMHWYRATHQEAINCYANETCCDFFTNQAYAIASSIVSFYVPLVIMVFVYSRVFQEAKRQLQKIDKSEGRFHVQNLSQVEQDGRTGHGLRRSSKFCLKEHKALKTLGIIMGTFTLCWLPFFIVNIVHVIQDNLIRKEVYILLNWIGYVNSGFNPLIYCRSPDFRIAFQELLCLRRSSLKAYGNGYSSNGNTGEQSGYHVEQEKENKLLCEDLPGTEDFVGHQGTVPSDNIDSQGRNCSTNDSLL

Prostaglandin E2 receptor EP4 subtype (Homo sapiens), sequence (P35408 whole entry): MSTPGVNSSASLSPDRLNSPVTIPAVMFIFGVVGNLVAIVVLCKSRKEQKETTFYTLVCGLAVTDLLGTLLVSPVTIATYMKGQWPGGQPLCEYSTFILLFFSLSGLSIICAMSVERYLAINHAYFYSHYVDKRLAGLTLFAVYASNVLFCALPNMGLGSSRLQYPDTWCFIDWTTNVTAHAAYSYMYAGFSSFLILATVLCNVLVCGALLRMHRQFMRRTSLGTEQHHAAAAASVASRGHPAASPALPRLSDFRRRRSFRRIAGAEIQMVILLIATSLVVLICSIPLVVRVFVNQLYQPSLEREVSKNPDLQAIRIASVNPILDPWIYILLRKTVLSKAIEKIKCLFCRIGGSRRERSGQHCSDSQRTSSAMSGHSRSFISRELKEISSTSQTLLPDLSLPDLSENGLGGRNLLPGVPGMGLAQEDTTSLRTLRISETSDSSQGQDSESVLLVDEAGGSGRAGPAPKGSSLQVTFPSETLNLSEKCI
3',5'-cyclic-AMP phosphodiesterase 4A (Rattus norvegicus), sequence (P54748 whole entry): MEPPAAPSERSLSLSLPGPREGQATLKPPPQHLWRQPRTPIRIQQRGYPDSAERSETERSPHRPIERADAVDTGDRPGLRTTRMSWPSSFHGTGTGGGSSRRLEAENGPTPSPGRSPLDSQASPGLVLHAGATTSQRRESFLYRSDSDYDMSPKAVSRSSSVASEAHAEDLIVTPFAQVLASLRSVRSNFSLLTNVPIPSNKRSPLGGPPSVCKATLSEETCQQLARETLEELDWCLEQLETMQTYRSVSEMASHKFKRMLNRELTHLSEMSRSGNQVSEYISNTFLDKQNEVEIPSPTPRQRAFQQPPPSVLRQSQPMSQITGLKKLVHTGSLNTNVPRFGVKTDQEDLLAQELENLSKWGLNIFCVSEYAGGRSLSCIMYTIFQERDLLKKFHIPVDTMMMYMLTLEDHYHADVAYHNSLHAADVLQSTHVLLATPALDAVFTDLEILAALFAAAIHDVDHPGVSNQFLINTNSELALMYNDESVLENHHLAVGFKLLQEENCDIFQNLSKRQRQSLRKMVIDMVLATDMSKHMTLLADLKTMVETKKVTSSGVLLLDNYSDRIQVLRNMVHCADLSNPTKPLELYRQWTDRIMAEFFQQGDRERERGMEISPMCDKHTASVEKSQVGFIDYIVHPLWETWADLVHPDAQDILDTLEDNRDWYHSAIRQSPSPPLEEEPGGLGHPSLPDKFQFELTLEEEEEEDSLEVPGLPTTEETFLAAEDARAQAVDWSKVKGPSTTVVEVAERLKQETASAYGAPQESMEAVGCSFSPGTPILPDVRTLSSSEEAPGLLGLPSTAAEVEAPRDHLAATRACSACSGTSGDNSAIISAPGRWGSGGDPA
B2 bradykinin receptor (Homo sapiens), sequence (P30411 whole entry): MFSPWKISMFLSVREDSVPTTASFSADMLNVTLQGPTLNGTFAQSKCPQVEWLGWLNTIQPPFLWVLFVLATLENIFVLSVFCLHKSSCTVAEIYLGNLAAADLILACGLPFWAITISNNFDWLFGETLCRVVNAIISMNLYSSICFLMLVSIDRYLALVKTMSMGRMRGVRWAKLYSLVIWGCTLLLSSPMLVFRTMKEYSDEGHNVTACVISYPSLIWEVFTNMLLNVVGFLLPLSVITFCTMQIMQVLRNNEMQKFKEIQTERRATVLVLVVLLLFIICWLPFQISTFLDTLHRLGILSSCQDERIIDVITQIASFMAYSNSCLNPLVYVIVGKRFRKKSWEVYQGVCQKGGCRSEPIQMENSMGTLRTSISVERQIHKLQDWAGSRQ
Adenosine receptor A1 (Homo sapiens), sequence (P30542 whole entry): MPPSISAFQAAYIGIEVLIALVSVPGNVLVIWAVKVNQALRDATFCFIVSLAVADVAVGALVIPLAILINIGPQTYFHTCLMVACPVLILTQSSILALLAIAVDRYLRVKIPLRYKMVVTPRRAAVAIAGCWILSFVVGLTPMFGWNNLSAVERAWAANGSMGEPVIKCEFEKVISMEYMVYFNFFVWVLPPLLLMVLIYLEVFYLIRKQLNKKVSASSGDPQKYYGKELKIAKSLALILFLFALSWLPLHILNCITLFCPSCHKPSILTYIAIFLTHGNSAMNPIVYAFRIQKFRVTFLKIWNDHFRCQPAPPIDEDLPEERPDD
Endothelin-1 receptor (Homo sapiens), sequence (P25101 whole entry): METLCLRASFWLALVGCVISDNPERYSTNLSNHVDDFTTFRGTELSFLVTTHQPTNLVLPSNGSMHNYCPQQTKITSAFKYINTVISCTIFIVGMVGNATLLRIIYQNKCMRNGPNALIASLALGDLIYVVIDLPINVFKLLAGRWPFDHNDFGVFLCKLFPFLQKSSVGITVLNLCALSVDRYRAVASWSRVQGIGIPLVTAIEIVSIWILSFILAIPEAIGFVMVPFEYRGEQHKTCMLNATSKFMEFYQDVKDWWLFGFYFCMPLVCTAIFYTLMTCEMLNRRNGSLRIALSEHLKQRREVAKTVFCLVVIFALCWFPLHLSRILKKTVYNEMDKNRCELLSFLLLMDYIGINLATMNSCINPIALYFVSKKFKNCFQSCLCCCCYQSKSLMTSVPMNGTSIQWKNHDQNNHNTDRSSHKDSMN
Sodium-dependent noradrenaline transporter (Homo sapiens), sequence (P23975 whole entry): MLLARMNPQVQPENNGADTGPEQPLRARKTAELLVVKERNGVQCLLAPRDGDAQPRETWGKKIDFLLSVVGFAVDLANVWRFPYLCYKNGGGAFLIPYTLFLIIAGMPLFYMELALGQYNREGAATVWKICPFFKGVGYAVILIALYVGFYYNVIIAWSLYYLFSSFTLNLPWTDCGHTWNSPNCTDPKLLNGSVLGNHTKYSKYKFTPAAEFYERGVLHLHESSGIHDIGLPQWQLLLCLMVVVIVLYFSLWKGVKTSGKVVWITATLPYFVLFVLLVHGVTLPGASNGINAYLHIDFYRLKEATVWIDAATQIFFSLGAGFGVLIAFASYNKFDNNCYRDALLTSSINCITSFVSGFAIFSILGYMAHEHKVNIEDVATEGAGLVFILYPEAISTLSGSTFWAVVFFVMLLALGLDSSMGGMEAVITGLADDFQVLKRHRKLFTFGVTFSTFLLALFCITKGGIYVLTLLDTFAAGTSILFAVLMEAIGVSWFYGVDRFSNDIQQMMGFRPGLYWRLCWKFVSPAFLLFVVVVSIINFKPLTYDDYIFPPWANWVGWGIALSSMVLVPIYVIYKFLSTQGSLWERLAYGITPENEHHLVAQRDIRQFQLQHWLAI
Glucocorticoid receptor (Homo sapiens), sequence (P04150 whole entry): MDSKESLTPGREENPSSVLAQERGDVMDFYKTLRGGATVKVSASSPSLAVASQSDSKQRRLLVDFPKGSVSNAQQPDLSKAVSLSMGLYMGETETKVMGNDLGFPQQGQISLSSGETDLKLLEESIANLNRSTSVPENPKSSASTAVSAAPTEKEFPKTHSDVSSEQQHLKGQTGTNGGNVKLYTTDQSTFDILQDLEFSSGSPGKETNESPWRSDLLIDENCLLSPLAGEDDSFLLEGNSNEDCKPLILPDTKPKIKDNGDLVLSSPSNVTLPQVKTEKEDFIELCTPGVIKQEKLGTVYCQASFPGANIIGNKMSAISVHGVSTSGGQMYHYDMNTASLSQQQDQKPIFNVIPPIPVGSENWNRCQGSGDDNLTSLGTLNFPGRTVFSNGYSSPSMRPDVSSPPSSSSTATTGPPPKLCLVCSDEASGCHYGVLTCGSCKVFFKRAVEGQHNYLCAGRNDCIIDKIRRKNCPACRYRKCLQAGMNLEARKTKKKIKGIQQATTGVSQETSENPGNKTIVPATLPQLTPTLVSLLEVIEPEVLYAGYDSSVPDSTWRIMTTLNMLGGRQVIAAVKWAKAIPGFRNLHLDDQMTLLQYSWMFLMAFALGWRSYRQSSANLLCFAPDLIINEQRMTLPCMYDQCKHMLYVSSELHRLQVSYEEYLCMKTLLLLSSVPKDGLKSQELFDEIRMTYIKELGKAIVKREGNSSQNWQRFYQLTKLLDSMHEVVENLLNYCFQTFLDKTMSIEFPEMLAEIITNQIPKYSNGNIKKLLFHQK
MAO-A (amine oxidase [flavin-containing] A), sequence (P21396 whole entry): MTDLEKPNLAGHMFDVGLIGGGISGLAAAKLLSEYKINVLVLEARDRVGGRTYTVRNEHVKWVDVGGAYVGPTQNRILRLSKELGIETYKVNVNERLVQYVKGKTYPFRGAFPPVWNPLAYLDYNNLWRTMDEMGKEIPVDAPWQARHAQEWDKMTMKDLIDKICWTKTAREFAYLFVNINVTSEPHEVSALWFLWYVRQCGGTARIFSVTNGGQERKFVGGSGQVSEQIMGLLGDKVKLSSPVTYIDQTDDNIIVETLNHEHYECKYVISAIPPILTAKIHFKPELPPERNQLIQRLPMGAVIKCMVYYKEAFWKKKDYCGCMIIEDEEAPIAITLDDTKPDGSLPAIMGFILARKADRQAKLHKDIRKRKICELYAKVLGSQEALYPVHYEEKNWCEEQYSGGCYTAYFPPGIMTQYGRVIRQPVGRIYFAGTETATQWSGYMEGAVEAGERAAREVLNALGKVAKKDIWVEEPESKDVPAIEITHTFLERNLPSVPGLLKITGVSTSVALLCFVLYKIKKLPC

Cc1cc(OCCC(C)(C)O)cc(C)c1-c1ccc(F)c2c1CC[C@H]2Oc1ccc2c(c1)OC[C@H]2CC(=O)O
inactive: residual activity [1] 103% | residual activity [2] 67% | residual activity [3] 91% | residual activity [4] 99% | residual activity ([5]; Compound concentration 0.3 uM) 102% | residual activity ([5]; Compound concentration 1.0 uM) 108% | residual activity ([5]; Compound concentration 3.0 uM) 92% | residual activity ([5]; Compound concentration 10.0 uM) 55% | residual activity [6] 105% | residual activity [7] 113% | residual activity ([9]; Compound concentration 0.1 uM) 93% | residual activity ([9]; Compound concentration 0.3 uM) 100% | residual activity ([9]; Compound concentration 1.0 uM) 95% | residual activity ([9]; Compound concentration 3.0 uM) 82% | residual activity [10] 68% | inhibition [11] -8.92% | residual activity [12] 68% | residual activity [13] 85%
active: residual activity ([5]; Compound concentration 30.0 uM) 11% | EC50 [8] 3 nM | residual activity ([9]; Compound concentration 10.0 uM) 23% | residual activity ([9]; Compound concentration 30.0 uM) 1%

COCCCS(=O)(=O)c1cc(C)c(-c2ccc(F)c3c2CC[C@H]3Oc2ccc3c(c2)OC[C@H]3CC(=O)O)c(C)c1
inactive: residual activity [15] 94% | inhibition [16] 2.56%
94% (not active): activity at 10 µM [14]
